From patent US12195424B2, “Antibiotic compounds” (The General Hospital Corporation, priority 2017, dated 2025)

Assays:
MRSA MW2 persisters = experiment: Persister killing assay; type: cell-based, S. aureus; conditions: MRSA persisters, in words
Protocol: Persister killing assay. […] Persistency of stationary-phase S. aureus VRS1 was evaluated by treating with 100×MIC daptomycin and 100×MIC linezolid, because the strain is resistant to vancomycin, gentamicin, ciprofloxacin, and rifampicin. We prepared persister cells of the 13 S. aureus strains by growing cultures overnight to stationary phase at 37° C. at 225 rpm. The overnight cultures were washed three times with PBS and diluted to ˜5×10^7 ? CFU/ml with the same buffer. 2 ml of the persister suspension containing appropriate concentrations of antibiotics was added to the wells of a 96-well assay block (Corning Costar 3960) and incubated at 37° C., with shaking at 225 rpm. At specific times, 400 μl samples were removed and washed once with PBS to remove the antibiotic. The samples were serially diluted 10^5 fold with PBS and spot-plated onto TSA plates. After incubating the plates overnight (˜18 h) at 37° C., the colonies were counted to enumerate the number of cells. These experiments were conducted in triplicate.

Maximum tolerated dose = type: in vivo; conditions: mice
Protocol: Maximum tolerated dose. Six-week-old female CD1 ICR outbred mice (20-25 g) were obtained from Charles River Laboratories (Wilmington, MA, USA). Analog 2 was dissolved in a 1:1 solution of Kolliphor EL (Sigma-Aldrich, St Louis, MO, USA) and ethanol and then diluted 1:10 in saline to a final concentration of 4 mg/ml. Groups of mice (n=6) were treated with 10, 20, 40, 80 mg/kg Analog 2 i.p. or vancomycin (25 mg/kg) every 12 h for 3 days. Control mice were injected with 400 μl of 10% Kolliphor EL/ethanol in saline i.p. every 12 h for 3 days. Mice were closely monitored until they were euthanized at 72 h from the first infection. After euthanizing mice, blood was collected by cardiac puncture. All samples were stored at 4° C. until for analysis. Serum was analyzed for alanine aminotransferase and urea nitrogen content with commercially available kits, following the manufacturer's protocol (Pointe Scientific, Canton, MI, USA). No statistical methods were used to predetermine samples size. The experiments were not randomized, and investigators were not blinded to allocation during experiments and outcome assessment. This study and all experimental protocols were approved by the Rhode Island Hospital Institutional Animal Care and Use Committee (RIH IACUC) and conducted in accordance with the Animal Welfare Act and National Institutes of Health guidelines for animal care and use. Statistical significance among each group was analyzed by one-way ANOVA with post-hoc Tukey test using PASW Statistics 18 (SPSS Inc. Chicago, IL, USA) and GraphPad Prism 7 (GraphPad Software, La Jolla, CA, USA).

S. aureus MW2 = experiment: Deep-seated mouse thigh infection model; type: in vivo, mice; conditions: every 12 h for 3 days, p<0.001
Protocol: Deep-seated mouse thigh infection model for evaluating drug efficacy. A previously described protocol to mimic a chronic, deep-tissue infection was used with modifications. Six-week-old female CD1 ICR outbred mice (20-25 g) were obtained from Charles River Laboratories (Wilmington, MA, USA). To make mice neutropenic, 150 mg/kg and 100 mg/kg of cyclophosphamide were administered via i.p. injection at 4 days and 1 day before infection, respectively. On the day of infection, ˜10^5 cells of stationary-phase S. aureus MW2 suspended in 50 μl of saline were injected to the right thigh of each mouse. To test the efficacy of CD437, the compound was dissolved in a 1:1 solution of Kolliphor EL (Sigma-Aldrich, St Louis, MO, USA) and ethanol and then diluted 1:10 in saline to a final concentration of […]. […] At 24 h post-infection, groups of mice (n=10) were treated with 30 mg/kg gentamicin subcutaneously (s.c.), 25 mg/kg vancomycin i.p., 20 mg/kg CD437 i.p., or a combination of 20 mg/kg CD437 i.p. and 30 mg/kg gentamicin s.c. every 12 h for 3 days. Control mice were injected with 200 μl of 10% Kolliphor EL/ethanol in saline i.p. every 12 h for 3 days. For testing the efficacy of Analog 2, the compound was dissolved in a 1:1 solution of Kolliphor EL (Sigma-Aldrich, St Louis, MO, USA) and ethanol and then diluted 1:10 in saline to a final concentration of 4 mg/ml. […] Serum was analyzed for alanine aminotransferase and urea nitrogen content with commercially available kits, following the manufacturer's protocol (Pointe Scientific, Canton, MI, USA). […] The bacterial burden was recorded as CFU/g tissue. A sample size of 10 mice per group was calculated for a single-tailed power analysis using a standard deviation based on our historical data and the literature in consultation with the Rhode Island Hospital Biostatistics Core. […] Statistical significance among each group was analyzed by one-way ANOVA with post-hoc Tukey test using PASW Statistics 18 (SPSS Inc. Chicago, IL, USA) and GraphPad Prism 7 (GraphPad Software, La Jolla, CA, USA).

[1] = every 12 h for 3 days, Analog 2 10-80 mg/kg i.p., vancomycin 25 mg/kg i.p., P>0.7

## OCc1ccc2cc(-c3ccc(O)c(C45CC6CC(CC(C6)C4)C5)c3)ccc2c1 [Analog 2, 2-(adamantan-1-yl)-4-(6-(hydroxymethyl)naphthalen-2-yl)phenol]
MRSA MW2 persisters
  anti-persister activity: retained bacterial activity against MRSA persisters
Maximum tolerated dose; [1]
  alanine aminotransferase (ALT) vs. control: lack of significant differences
  blood urea nitrogen (BUN) vs. control: lack of significant differences
Maximum tolerated dose; up to 80 mg/kg i.p. (highest tested dose) every 12 h for 3 days
  hepatic or renal toxicity: no detectable
S. aureus MW2; 40 mg/kg i.p. in combination with 30 mg/kg gentamicin s.c.
  decrease in bacterial burden: ~1 log
S. aureus MW2; 80 mg/kg i.p. alone
  decrease in bacterial burden: ~1 log
S. aureus MW2; 80 mg/kg i.p. in combination with 30 mg/kg gentamicin s.c.
  decrease in bacterial burden: ~2 log
